Results published in patent US20230157998A1, “Methods of Inhibiting SARS-CoV-2 Replication and Treating Corona Virus Disease 2019” (Pfizer Inc., priority 2020, published 2023).
Converted amounts (≈) assume the structure as drawn. “And” between values parts separate entries of the source, which are not always exact repeats. Equal entries are not always repeated. Where two headings read alike, the source gives them in different places.

What was measured:
[1] = Physical stability on storage of the 6 mg/mL formulation (F11); format: physicochemical; settings: 80 mg/mL SBE-β-CD, […] v/v ethanol, 3.4% v/v PEG400, 6 mg/mL PF-00835231
Experimental: To further assess the robustness of formulations prepared in Formulation Example F10, a single formulation was selected to scale-up for use in a stability study.
An additional 20 mL solution of 300 mg/mL SBE-β-CD was similarly prepared.
14.29 mL of the citrate buffer and SBE-β-CD stock solution was then added to two separate 20 mL scintillation vials. […] The drug product solutions were mixed overnight and filtered through a 0.2 um PVDF filter. 0.5 mL aliquots of drug product solutions were then filled into 4 mL vials, stoppered, crimped, and placed in temperature-controlled chambers at −20° C., 4° C., and 25° C.
Furthermore, if the solutions were supersaturated at room temperature, exposure to refrigerated or frozen storage temperatures should induce precipitation and cause a decrease in assay. […] (top), 4° C. (center), and 25° C. (bottom). For each condition, data from two separate samples is plotted and is shown with a linear fit to the data.

229E-CoV-2 3CLpro = 229E-CoV-2 3CLpro (Human coronavirus 229E, UniProt P0C6X1); assay: FRET protease activity assay; format: biochemical; settings: Alpha-CoV; [E]T 118 ± 3 nM
OC43-CoV 3CLpro = OC43-CoV 3CLpro (Human coronavirus OC43, UniProt P0C6X6); assay: FRET protease activity assay; format: biochemical; settings: Beta-CoV; [E]T 52 ± 1 nM
Human Cathepsin B = Human Cathepsin B (Homo sapiens, UniProt P07858); assay: Protease panel; format: biochemical
Human Chymotrypsin = assay: Protease panel; format: biochemical
HCOV-229E = assay: Antiviral activity in MRC-5 cells; format: cell-based; settings: lung cell lines (A549-ACE2 and MRC5)
SARS-CoV-2 USA-WA1/2020 [2] = assay: In vitro drug efficacy in A549+ACE2 cells; format: cell-based
SARS-CoV-2 USA-WA1/2020 [3] = assay: microbe, parasite or virus in culture; format: cell-based
SARS-CoV-2 = assay: Efficacious target concentration and human dose projection; settings: across a range of in vitro antiviral assays
[4] = 48 h
[5] = Ethanol […] v/v, 2 mg/mL at preparation
[6] = ~1 mg/mL, 5% v/v co-solvent, pH 4 or 5, with or without 15 mg/mL SBE-β-CD, up to 7 days, all samples
VeroE6-enACE2 cells = settings: African green monkey
[7] = rat, dog, monkey, in vivo
physchem [8] = settings: 25 °C, organic solvent or mixture, thermodynamic from solid
physchem [9] = settings: 25 °C, aqueous with cosolvent or surfactant or cyclodextrin, thermodynamic from solid
in vitro = settings: human
[10] = Cytotoxicity in MRC-5 cells; settings: human
MRC-5 cells = assay: Cytotoxicity in MRC-5 cells; settings: read-out: CC50 μM GeoMean; MRC-5, Efflux Inhibitor 0.5 μM
[11] = Admixture physical stability in 0.9% w/v sodium chloride; settings: 25° C.
[12] = Assay over 7 days, 80 mg/mL SBE-β-CD with PEG400/ethanol (F10); settings: ~3:1 PEG400:ethanol (1.5-6.0% v/v), 2, 4, 6 and 8 mg/mL PF-00835231, ambient
[13] = Saturated solubility in co-solvent/co-solvent/water mixtures (F3); settings: 25 °C, pH 5, aqueous buffer, thermodynamic from solid, PF-00835321 Saturated Solubility, pH 5, 5 mM citrate, PEG400 0.75, Ethanol […] v/v
[14] = Saturated solubility in CD/water mixtures with polymeric excipients (F6); settings: 25° C., pH 5, HP-β-CD 15 mg/mL
[15] = Assay of CD/co-solvent/water formulations of different compositions over 5 days (F8); settings: all formulations of Formulation Table F11
[16] = 2.5x dilution in 0.9% w/v sodium chloride
[17] = 10x dilution in 0.9% w/v sodium chloride

OC43-CoV 3CLpro, sequence (P0C6X6 3247-3549): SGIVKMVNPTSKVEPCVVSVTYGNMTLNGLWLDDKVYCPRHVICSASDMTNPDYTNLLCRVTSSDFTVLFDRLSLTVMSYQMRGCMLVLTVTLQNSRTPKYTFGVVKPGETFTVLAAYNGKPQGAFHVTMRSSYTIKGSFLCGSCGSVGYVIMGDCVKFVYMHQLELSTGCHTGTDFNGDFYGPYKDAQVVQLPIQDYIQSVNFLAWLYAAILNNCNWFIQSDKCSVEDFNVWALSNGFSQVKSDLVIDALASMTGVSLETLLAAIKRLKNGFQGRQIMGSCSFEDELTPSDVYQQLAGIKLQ
229E-CoV-2 3CLpro, sequence (P0C6X1 2966-3267): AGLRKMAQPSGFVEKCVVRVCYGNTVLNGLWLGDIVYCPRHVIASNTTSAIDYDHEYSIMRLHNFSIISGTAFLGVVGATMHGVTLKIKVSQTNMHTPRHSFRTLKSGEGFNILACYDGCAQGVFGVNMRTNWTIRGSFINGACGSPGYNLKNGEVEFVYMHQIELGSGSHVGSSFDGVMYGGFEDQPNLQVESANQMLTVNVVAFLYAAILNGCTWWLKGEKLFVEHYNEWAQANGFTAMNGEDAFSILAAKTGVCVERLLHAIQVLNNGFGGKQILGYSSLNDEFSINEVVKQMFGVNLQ

COc1cccc2[nH]c(C(=O)N[C@@H](CC(C)C)C(=O)N[C@@H](C[C@@H]3CCNC3=O)C(=O)CO)cc12 [PF-00835231]
assay values on storage at 4° C. and 25° C. (FIG. 13) [1]: consistent over the 30 day period tested | assay values on storage at −20° C. (FIG. 13) [1]: consistent over the 7 day period tested | Ki (229E-CoV-2 3CLpro): 1.5 ± 0.8 nM | Ki (OC43-CoV 3CLpro): 0.5 ± 0.1 nM | margin of activity against human cathepsin B compared to 3CLpro (Human Cathepsin B): 1000 fold | IC50 (Human Chymotrypsin): > 100000 nM | difference in antiviral potency in the presence and absence of P-gp inhibitor (HCOV-229E): no significant difference in antiviral potency | EC50 (SARS-CoV-2 USA-WA1/2020 [2]; Severe acute respiratory syndrome coronavirus 2, A549-ACE2, 24 h): 221 nM | EC90 (SARS-CoV-2 USA-WA1/2020 [2]; Severe acute respiratory syndrome coronavirus 2, A549-ACE2, 24 h, read-out: EC90): 734 nM | EC50 (SARS-CoV-2 USA-WA1/2020 [2]; Severe acute respiratory syndrome coronavirus 2, A549-ACE2, 48 h): 158 nM | EC90 (SARS-CoV-2 USA-WA1/2020 [2]; Severe acute respiratory syndrome coronavirus 2, A549-ACE2, 48 h, read-out: EC90): 439 nM | EC90 (SARS-CoV-2 USA-WA1/2020 [2]; Severe acute respiratory syndrome coronavirus 2, A549-ACE2, dose response assay in human lung carcinoma cells, read-out: average EC90): 440 nM | SARS-CoV-2 viral infectious titers in apical washes (SARS-CoV-2 USA-WA1/2020 [3]; 10 μM doses): viral titers below the limit of 366 detection at most time points | SARS-CoV-2 viral infectious titers in apical washes (SARS-CoV-2 USA-WA1/2020 [3]; 0.025, 0.5 or 10 μM in basolateral chamber, washes at 12-hour increments): potently inhibit SARS-CoV-2 titers in a dose-dependent manner | EC90 (SARS-CoV-2 USA-WA1/2020 [3]; Severe acute respiratory syndrome coronavirus 2, primary human airway epithelial model, antiviral time course, preliminary data, read-out: unbound EC90): < 500 nM | Hill coefficient (m), slope of the dose response curve (SARS-CoV-2): 3 | PF-00835321 Solubility [4]: >45000 µg/mL | PF-00835231 Assay ([5]; HP-β-CD 0 mg/mL, order: PF-00835231, Ethanol, Buffer): 0.4 mg/mL | PF-00835231 Assay ([5]; HP-β-CD 15 mg/mL, order: PF-00835231, Ethanol, HP-β-CD with buffer): 1.9 mg/mL | PF-00835231 Assay ([5]; HP-β-CD 15 mg/mL, order: PF-00835231, HP-β-CD with buffer, Ethanol): 0.4 mg/mL | decrease in chromatographic purity at 22° C. [6]: less than 0.5% | CC50 (VeroE6-enACE2 cells): > 100000 nM | eliminated unchanged in the urine [7]: approximately 10% | solubility at 48 h (physchem [8]): > 45000 µg/mL | solubility (physchem [9]): 1700 µg/mL (≈ 3.6 mM) | solubility at 48 h (physchem [9]): 1900 µg/mL (≈ 4.02 mM) | solubility at 72 h (physchem [9]): 2000 µg/mL (≈ 4.23 mM) | CC50 (in vitro): > 10000 nM | CC50 [10]: > 100000 nM | CC50 (MRC-5 cells): > 100 µM | Assay - 0 days [11, 16]: 2.3 mg/mL and 2.2 mg/mL | Assay - 3 days [11, 16]: 2.3 mg/mL and 2.2 mg/mL | Total Impurities - 0 days [11, 16]: 1.23 % peak area and 1.20 % peak area | Total Impurities - 3 days [11, 16]: 1.38 % peak area and 1.37 % peak area | Assay - 0 days [11, 17]: 0.6 mg/mL | Assay - 3 days [11, 17]: 0.6 mg/mL | Total Impurities - 0 days [11, 17]: 1.20 % peak area | Total Impurities - 3 days [11, 17]: 1.33 % peak area | Assay - 0 days ([11]; No dilution): 5.8 mg/mL and 5.6 mg/mL | Assay - 3 days ([11]; No dilution): 5.8 mg/mL and 5.7 mg/mL | Total Impurities - 0 days ([11]; No dilution): 1.25 % peak area | Total Impurities - 3 days ([11]; No dilution): 1.44 % peak area and 1.48 % peak area | assay values of filtered formulations over 7 days (FIG. 12) [12]: do not change over 7 days | solubility at 48 h [13]: 100 µg/mL (≈ 0.212 mM) | PF-00835231 Assay ([14]; HPMC 1 mg/mL): 0.4 mg/mL | PF-00835231 Assay ([14]; PEG400 […]): 0.4 mg/mL | PF-00835231 Assay ([14]; PEG3350 […]): 0.4 mg/mL | PF-00835231 Assay ([14]; PVP […]): 0.4 mg/mL | PF-00835231 Assay ([14]; no polymeric excipient): 0.4 mg/mL | appearance of solutions after 5 days mixing at 25° C. [15]: remained clear
